Among the data in patent publication US20140005103A1, “SULFONAMIDE DERIVATIVES AND METHODS OF USE THEREOF FOR IMPROVING THE PHARMACOKINETICS OF A DRUG” (Merck, Sharp & Dohme Corp., priority 2012, published 2014) are IC50 values, retold here.

SMILES strings stand for the structures.

One data set concerns the target T1, CYP2D6 (Homo sapiens, UniProt P10635).
T1 construct: 0.1 mg/mL protein human liver microsomes (BD Gentest); tissue BD Gentest; host or cells: human liver microsomes
Put plainly: Cocktail CYP assay, dextromethorphan O-demethylation. Format: in vitro ADME. To be noted: human liver microsomes, 5 μM dextromethorphan; test concentrations up to 10 μM. The protocol: (§1) Determination of IC50 in a Cocktail Assay for CYPs 1A2, 2C9, 2C19, 2D6 and 3A4
(§2) This assay was performed in a standard 96-well plate design. IC50 values were calculated from the percent inhibition observed for each test compound at 6 concentrations (for example, 0.0032, 0.016, 0.08, 0.4, 2 and 10 μM). The incubation substrate mix contains 10 μM phenacetin (1A2), 5 μM diclofenac (2C9), 30 μM mephenyloin (2C19), 5 μM dextromethorphan (2D6) and 2 μM midazolam (3A4), 0.1 mg/mL protein human liver microsomes (BD Gentest), 1 mM NAPDH, 3.3 mM MgCl2 and 100 mM potassium phosphate buffer (pH 7.4). The production of the metabolite of each probe substrate was determined after incubation for 10 min at 37° C. Quantitation of the metabolite peak area ratio against an internal standard (tolbutamide) was determined by LC/MS/MS analysis following acetonitrile treatment of the incubations.
(§3) Samples were analyzed in the MRM mode with a SCIEX API-4000 mass spectrometer (Applied Biosystems, Foster City, Calif.), with a Shimadzu LC-20 AD pump (Shimadzu corporation, Kyoto, JP) and a CTC PAL autosampler (Agilent Technologies, Switzerland). A Phenomenex, Luna, […], 100 A, 2.00×30 mm HPLC column was used for the separation. The mobile phases were: (A) 0.1% formic acid in water and (B) 0.1% formic acid in acetonitrile. The binary gradient was as follows.
(§4) The peak area ratio of the analyte to the internal standard was used to quantify the metabolite. The values of peak area ratios in the presence of test compound were compared to those of maximum or minimum controls and were expressed as % inhibition by interpolating between the maximum and minimum peak area ratios. Incubations with no inhibitor were defined as the maxima.
(§5) The following equation was used to calculate the % inhibition:
(§6) [1−[(X−Low control)/(High control−Low control)]]*100
(§7) For the IC50 calculation, SigmaPlot was used to plot the mean % inhibition versus the test compound concentrations and for non-linear regression analysis of the data. Depending on the range of data points defining the inhibition curve, the data may have been fit to the 4-parameter logistic equation.

For the next data set, the target named is CYP3A4 (Homo sapiens, UniProt P08684). As to the kind of experiment: IC50 vs CYP3A by inhibition of lopinavir metabolism in human liver microsomes. It is filed as biochemical. Conditions: pH 7.4, human liver microsomes, 1.5 μM lopinavir, 8 min at 37° C., test concentrations 0.098-100 nM, read-out: 3A4(LPV). The protocol: Determination of IC50 vs CYP3A by Measurement of Inhibition of Lopinavir Metabolism
Sequence of CYP3A4 (P08684 2-503): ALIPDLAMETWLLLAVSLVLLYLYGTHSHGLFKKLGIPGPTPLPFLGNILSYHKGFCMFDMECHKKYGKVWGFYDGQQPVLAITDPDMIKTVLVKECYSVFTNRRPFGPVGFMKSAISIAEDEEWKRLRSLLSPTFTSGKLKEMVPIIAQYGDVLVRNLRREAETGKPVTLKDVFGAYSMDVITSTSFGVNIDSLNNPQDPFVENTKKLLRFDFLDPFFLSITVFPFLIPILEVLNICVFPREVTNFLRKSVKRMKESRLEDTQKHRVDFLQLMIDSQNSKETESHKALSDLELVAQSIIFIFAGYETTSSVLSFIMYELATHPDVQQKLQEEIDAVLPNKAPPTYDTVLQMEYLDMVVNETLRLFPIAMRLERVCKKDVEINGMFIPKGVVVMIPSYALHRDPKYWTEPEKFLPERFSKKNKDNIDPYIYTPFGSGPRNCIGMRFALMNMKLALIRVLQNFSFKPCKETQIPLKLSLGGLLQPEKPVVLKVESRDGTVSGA
This assay was performed in a standard 96-well plate design. IC50 values were calculated from the percent inhibition observed for each test compound at 6 concentrations (for example, 0.098, 0.391, 1.56, 6.25, 25 and 100 nM). The incubation substrate mix contains 1.5 μM lopinavir, 0.01 mg/mL protein human liver microsomes (BD Gentest), 1 mM NAPDH, 3.3 mM MgCl2 and 100 mM potassium phosphate buffer (pH 7.4). The production of the sum of three hydroxylated metabolites (M2: 6-hydroxy lopinavir, M3: 4-hydroxy lopinavir, M4: 4-hydroxy lopinavir (epimer of M3), Kumar et al., 1999) was determined after incubation for 8 min at 37° C. Quantitation of the metabolite peak area ratio against an internal standard (tolbutamide) was determined by LC/MS/MS analysis following acetonitrile treatment of the incubations.
Samples were analyzed in the MRM mode with a SCIEX API-4000 mass spectrometer (Applied Biosystems, Foster City, Calif.), with a Shimadzu LC-20 AD pump (Shimadzu corporation, Kyoto, JP) and a CTC PAL autosampler (Agilent Technologies, Switzerland). A Phenomenex, Luna, 5 μm, 100 A, 2.00×30 mm HPLC column was used for the separation. The mobile phases were: (A) 0.1% formic acid in water and (B) 0.1% formic acid in acetonitrile. The binary gradient was as follows.
The peak area ratio of the analyte to the internal standard was used to quantify the metabolite. The values of peak area ratios in the presence of test compound were compared to those of maximum or minimum controls and were expressed as % inhibition by interpolating between the maximum and minimum peak area ratios. Incubations with no inhibitor were defined as the maxima and with 5 μM ketoconazole were defined as the minima
as §5, §6, §7
Background: Microsomes from liver hold many membrane-bound enzymes, among them those of drug oxidation.

A further data set has as its target T2, CYP2C19 (Homo sapiens, UniProt P33261).
T2 construct: 0.1 mg/mL protein human liver microsomes (BD Gentest); tissue BD Gentest; host or cells: human liver microsomes
Put plainly: Cocktail CYP assay, mephenytoin 4'-hydroxylation. To be noted: human liver microsomes, 30 μM mephenytoin; test concentrations up to 10 μM. Format: in vitro ADME. The protocol: as §1, §2, §3, §4, §5, §6, §7

T2 sequence (P33261 whole entry): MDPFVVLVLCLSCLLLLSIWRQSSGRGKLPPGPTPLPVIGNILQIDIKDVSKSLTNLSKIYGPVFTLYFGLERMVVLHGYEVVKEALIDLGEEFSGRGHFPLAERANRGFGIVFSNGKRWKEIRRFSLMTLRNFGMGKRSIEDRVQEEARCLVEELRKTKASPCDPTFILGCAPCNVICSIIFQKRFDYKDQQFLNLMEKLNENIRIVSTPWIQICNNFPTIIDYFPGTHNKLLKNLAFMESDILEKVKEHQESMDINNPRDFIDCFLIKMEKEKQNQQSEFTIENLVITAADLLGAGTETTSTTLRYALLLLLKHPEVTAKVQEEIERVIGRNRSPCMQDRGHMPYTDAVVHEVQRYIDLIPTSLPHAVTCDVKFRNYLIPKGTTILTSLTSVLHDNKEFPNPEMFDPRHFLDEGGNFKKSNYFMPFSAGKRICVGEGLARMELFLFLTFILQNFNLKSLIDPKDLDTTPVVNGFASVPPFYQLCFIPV
T1 sequence (P10635 whole entry): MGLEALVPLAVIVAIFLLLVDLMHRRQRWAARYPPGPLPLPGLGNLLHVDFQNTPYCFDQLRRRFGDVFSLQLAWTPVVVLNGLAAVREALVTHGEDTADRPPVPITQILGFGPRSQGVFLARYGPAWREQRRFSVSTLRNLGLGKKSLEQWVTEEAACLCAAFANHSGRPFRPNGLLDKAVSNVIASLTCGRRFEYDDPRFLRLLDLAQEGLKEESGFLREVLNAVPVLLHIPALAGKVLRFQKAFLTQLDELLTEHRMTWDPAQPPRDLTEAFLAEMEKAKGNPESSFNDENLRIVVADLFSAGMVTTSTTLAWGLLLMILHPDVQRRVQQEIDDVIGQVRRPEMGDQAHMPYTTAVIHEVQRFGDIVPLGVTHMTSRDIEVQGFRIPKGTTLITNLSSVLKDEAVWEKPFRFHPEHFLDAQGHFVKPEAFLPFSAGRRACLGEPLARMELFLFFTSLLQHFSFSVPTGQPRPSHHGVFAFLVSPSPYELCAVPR

As for `CC1CN2C[C@H](O)C[C@H]2CN1c1ncc(S(=O)(=O)N2CCN(Cc3cncn3[C@H](C)c3ccc(F)cc3)CC2)s1` (single isomer, unassigned) [Compound 22], the IC50 against CYP2D6 came out at 3650 nM; on CYP2C19, 2290 nM. In addition, the IC50 at 8 min on CYP3A4 was 1.3 nM.
Turning to `C[C@H](c1ccc(F)cc1)n1cncc1CN1CCN(S(=O)(=O)c2cnc(N3CCNCC3)s2)CC1` [Compound 1], the IC50 is 2780 nM against CYP2D6 and 2530 nM at CYP2C19. At CYP3A4, the IC50 at 8 min was found to be 1.4 nM.
In the case of `C[C@H](c1ccc(F)cc1)n1cncc1CN1CCN(S(=O)(=O)c2cnc(N3CCN(C)CC3)s2)CC1` [Compound 2], the IC50 against CYP2D6 stood at 8010 nM; against CYP2C19 it was 1830 nM. Besides, the IC50 at 8 min at CYP3A4 came out at 1 nM.
In the case of `C[C@H](c1ccc(F)cc1)n1cncc1CN1CCN(S(=O)(=O)c2cnc(N3CCC4(CC3)CNC(=O)N4)s2)CC1` [Compound 3], the IC50 against CYP2D6 is 2700 nM; against CYP2C19, > 10000 nM. Moreover, the IC50 at 8 min at CYP3A4 was 2.7 nM.
For `C[C@H](c1ccc(C#N)cc1)n1cncc1CN1CCN(S(=O)(=O)c2cnc(Nc3ccc(C(F)(F)F)cn3)s2)CC1` [Compound 4] the same measures were 5250 nM, 721 nM and < 0.1 nM.
For `C[C@H](c1ccc(F)cc1)n1cncc1CN1CCN(S(=O)(=O)c2cnc(N3CCN4C[C@H](O)C[C@H]4C3)s2)CC1` [Compound 5] the same measures were > 10000 nM, 3850 nM and 3.8 nM.
For `C[C@H](c1ccc(F)cc1)n1cncc1CN1CCN(S(=O)(=O)c2cnc(N3CCN4C[C@H](O)C[C@@H]4C3)s2)CC1` [Compound 6] the same measures were > 10000 nM, > 10000 nM and 1.4 nM.
As to `C[C@H](c1ccc(F)cc1)n1cncc1CN1CCN(S(=O)(=O)c2cnc(N3CCC(S(C)(=O)=O)C3)s2)CC1` (stereo partly drawn) [Compound 8], the IC50 on CYP2D6 and against CYP2C19 was > 10000 nM throughout. The IC50 at 8 min at CYP3A4 came out at 1.8 nM.
With `C[C@H](c1ccc(F)cc1)n1cncc1CN1CCN(S(=O)(=O)c2cnc(N3CCN(C4CCN(C)CC4)CC3)s2)CC1` [Compound 9], the IC50 on CYP2D6 and on CYP2C19 was > 10000 nM in each case. Moreover, on CYP3A4, the IC50 at 8 min worked out at 2.8 nM.
`C[C@H](c1ccc(F)cc1)n1cncc1CN1CCN(S(=O)(=O)c2cnc(N3CCN4C[C@@H](CN)C[C@H]4C3)s2)CC1` [Compound 10]: the IC50 against CYP2D6 and on CYP2C19 was > 10000 nM in each case. The IC50 at 8 min at CYP3A4 was < 0.98 nM.
Regarding `C[C@H](c1ccc(F)cc1)n1cncc1CN1CCN(S(=O)(=O)c2cnc(N3CC[C@@H](N)[C@H](F)C3)s2)CC1` [Compound 11], the IC50 on CYP2D6 was > 10000 nM; against CYP2C19 it was 8020 nM. For the same molecule, the IC50 at 8 min at CYP3A4 is < 0.98 nM.
For `C[C@H](c1ccc(F)cc1)n1cncc1CN1CCN(S(=O)(=O)c2cnc(N3CC[C@@H]4NCCO[C@H]4C3)s2)CC1` [Compound 15] the same measures were 3560 nM, > 10000 nM and 1.2 nM.
With `C[C@H](c1ccc(F)cc1)n1cncc1CN1CCN(S(=O)(=O)c2cnc(N3CC(=O)N4C[C@H](O)C[C@H]4C3)s2)CC1` [Compound 16], the IC50 was > 10000 nM against CYP2D6 and 8040 nM against CYP2C19. Besides, the IC50 at 8 min on CYP3A4 came to 5.2 nM.
With `C[C@H](c1ccc(F)cc1)n1cncc1CN1CCN(S(=O)(=O)c2cnc(NCC(F)CN)s2)CC1` (stereo partly drawn) [Compound 17], the IC50 is 3380 nM against CYP2D6 and 2250 nM at CYP2C19. Further, the IC50 at 8 min on CYP3A4 stood at 1.7 nM.
`C[C@H](c1ccc(F)cc1)n1cncc1CN1CCN(S(=O)(=O)c2cnc(N3CCN4C[C@H](O)C[C@H]4C3=O)s2)CC1` [Compound 18]: the figures for the IC50 at CYP2D6 and against CYP2C19 were 5000 nM and 2160 nM, respectively. Further, the IC50 at 8 min on CYP3A4 worked out at 1.1 nM.
For `C[C@H](c1ccc(F)cc1)n1cncc1CN1CCN(S(=O)(=O)c2cnc(N3CCN4C[C@H](O)CC[C@H]4C3)s2)CC1` [Compound 19] the same measures were 7010 nM, 7950 nM and 1.7 nM.
For `C[C@H](c1ccc(F)cc1)n1cncc1CN1CCN(S(=O)(=O)c2cnc(N3CC[C@@H](N4CCOCC4)[C@H](F)C3)s2)CC1` [Compound 20] the same measures were > 10000 nM, 4110 nM and 4.1 nM.
As for `C[C@H](c1ccc(F)cc1)n1cncc1CN1CCN(S(=O)(=O)c2cnc(N3C[C@@H]4C[C@@H](O)CN4C[C@@H]3C)s2)CC1` [Compound 21], the IC50 on CYP2D6 is 6180 nM; against CYP2C19, ≥ 10000 nM. Moreover, the IC50 at 8 min on CYP3A4 came to 1.9 nM.
For `CC1CN(c2ncc(S(=O)(=O)N3CCN(Cc4cncn4[C@H](C)c4ccc(F)cc4)CC3)s2)C[C@@H]2C[C@@H](O)CN12` (stereo partly drawn) [Compound 23] the same measures were 4650 nM, > 10000 nM and 1.6 nM.
Turning to `C[C@H](c1ccc(F)cc1)n1cncc1CN1CCN(S(=O)(=O)c2cnc(N3CCN4C[C@H](O)CC4(C)C3)s2)CC1` (stereo partly drawn) [Compound 24], the IC50 on CYP2D6 is 3200 nM; against CYP2C19 it was > 10000 nM. The IC50 at 8 min on CYP3A4 was determined as 1.9 nM.
For the molecule `C[C@H](c1ccc(F)cc1)n1cncc1CN1CCN(S(=O)(=O)c2cnc(N3CCC(N)(CO)CC3)s2)CC1` [Compound 25], the IC50 on CYP2D6 was 8350 nM; on CYP2C19 it was > 10000 nM. Further, the IC50 at 8 min at CYP3A4 came out at 1.9 nM.
On to `C[C@H](c1ccc(F)cc1)n1cncc1CN1CCN(S(=O)(=O)c2cnc(N3CCN4C(=O)OC[C@H]4C3)s2)CC1` [Compound 26], for which the IC50 against CYP2D6 was > 10000 nM; on CYP2C19, 7210 nM. Moreover, on CYP3A4, the IC50 at 8 min worked out at 1.5 nM.
For `C[C@H](c1ccc(F)cc1)n1cncc1CN1CCN(S(=O)(=O)c2cnc(N3CCN4CCC(O)[C@H]4C3)s2)CC1` (stereo partly drawn) [Compound 27] the same measures were 3850 nM, 6480 nM and 2.6 nM.
For `C[C@H](c1ccc(F)cc1)n1cncc1CN1CCN(S(=O)(=O)c2ccc(N3CCNCC3)cn2)CC1` [Compound 28] the same measures were 6500 nM, 3680 nM and 4.4 nM.
For the molecule `C[C@H](c1ccc(F)cc1)n1cncc1CN1CCN(S(=O)(=O)c2cncc(N3CCNCC3)c2)CC1` [Compound 29], the IC50 on CYP2D6 and against CYP2C19 was > 10000 nM throughout. Further, the IC50 at 8 min at CYP3A4 was 2.9 nM.
For `C[C@H](c1ccc(F)cc1)n1cncc1CN1CCN(S(=O)(=O)c2cnc(N3CCNCC3)cn2)CC1` [Compound 30], the results for the IC50 against CYP2D6 and against CYP2C19 were 4920 nM and > 10000 nM, respectively. Moreover, the IC50 at 8 min at CYP3A4 was determined as 3.6 nM.
For `Cc1ccc(C2(n3cncc3CN3CCN(S(=O)(=O)c4cnc(N5CCN(C)CC5)s4)CC3)CC2)nc1` [Compound 31] the same measures were > 10000 nM, > 10000 nM and 4.4 nM.
For `CN1CCN(c2ncc(S(=O)(=O)N3CCN(Cc4cncn4CCOc4ccc(Cl)cc4)CC3)s2)CC1` [Compound 32] the same measures were 1300 nM, 3440 nM and 1.2 nM.
